The test system of data set [1] is P. falciparum strain 3D7-Netherlands. Briefly: In vitro IC50, 3H-hypoxanthine incorporation, P. falciparum 3D7. It counts as cell-based, Plasmodium falciparum. To be noted: for IC50: Plasmodium falciparum; for in vitro activity in words: compared with compound 1.
A further data set relates to K562. Briefly: Antiproliferative activity K562. To be noted: Homo sapiens, read-out: IC50 [μg/ml] Antiproliferative activity K562. It is filed as cell-based.
A further data set deals with L929. Briefly: Antiproliferative activity L929. It is filed as cell-based. The following applies: Mus musculus, read-out: IC50 [μg/ml] Antiproliferative activity L929.
Another data set in a line: Cytotoxicity HeLa. The following applies: human, HeLa cells.
A further data set deals with adult S. mansoni. Briefly: In vitro treatment of adult S. mansoni couples, visual evaluation by microscope. Also on record: species or system Schistosoma mansoni. On the procedure:
Compounds 2, 18 and 41 were tested by Prof. Dr. Grevelding, Parasitology, Veterinary Medicine, University of Gieβen, also in the parasite Schistosoma mansoni. […] Each test was performed with 3 groups of 10 worms each. Remarkable was that different effects on the worms with respect to morphological alterations could be observed. […] Exemplarily shown in FIGS. 1 and 2 is an image of a control assay and an image of trematodes after 48 hours of incubation with compound 18.
Each one of the three groups (one group per well) comprised 10 pairs of adult S. mansoni were incubated with the substance to be tested for 24 h. As control served three groups which were incubated with medium (M199) and three groups which were incubated with medium and DMSO as solvent of the test substances. Evaluation was done visually using a microscope.
In a second experimental setting, again three groups each (one group per well) with 8 pairs of adult S. mansoni each were incubated with the compound to be tested, however for 48 h in this experiment. As control served three groups which were either incubated with medium (M199) or medium and DMSO as solvent of the test substances. Evaluation was done visually using a microscope.

The subject of data set [2] is Plasmodium berghei GFP MRA-865. Briefly: Plasmodium berghei infection in the mouse model (in vivo). To be noted: for Activity (%): parasitemia day 4 vs untreated controls.
Where [3] appears, read: P. falciparum strain 3D7, read-out: IC50 [nM] P.f.(3D7).
Where [4] appears, read: P. falciparum strain 3D7, read-out: IC50 [ng/ml] P.f.(3D7).

≈ marks a conversion by molar mass, not a printed value. Read-outs that look alike come from different tables or passages of the source.

For `COc1ccc2c(c1)CC[C@@H]1[C@@H]2CC[C@]2(C)[C@H](O)[C@H](N(C)c3cc4ccccc4cc3O)C[C@@H]12` [Compound 36, 16α-[(3-Hydroxy-naphth-2-yl)-methylamino]-17α-hydroxy-3-methoxy-estra-1,3,5(10)-triene], the IC50 in data set [1] (setting [3]) came out at 42.1 nM; in data set [1] (setting [4]), 19.3 ng/mL.
With `COc1ccc2c(c1)CCC1C2CC[C@@]2(C)C1C[C@H](NCc1cc(C(C)(C)C)cc(C(C)(C)C)c1O)[C@H]2O` (stereo partly drawn) [Ref 1, 16β-(2-Hydroxy-3,5-di-tert-butylphenyl-methylamino)-17α-hydroxy-3-methoxy-estra-1,3,5(10)-triene, reference compound], the IC50 in data set [1] (setting [3]) came out at 1610 nM; in data set [1] (setting [4]), 836 ng/mL.
Consider `COc1ccc2c(c1)CCC1C2CC[C@@]2(C)C1C[C@@H](NCc1ccccc1O)[C@@H]2O` (stereo partly drawn) [Compound 43, 16α-(2-Hydroxyphenyl-methylamino)-17β-hydroxy-3-methoxy-estra-1,3,5(10)-triene], for which the IC50 in data set [1] (setting [3]) is 58.5 nM; in data set [1] (setting [4]) it was 23.9 ng/mL; in the data set with K562, 1.2 µg/mL (≈ 2.94 µM); in the data set with L929 it was 2 µg/mL (≈ 4.91 µM); in “Cytotoxicity HeLa”, 7.7 µg/mL (≈ 18.9 µM).
For `COc1ccc2c(c1)CCC1C2CC[C@@]2(C)C1CC[C@@H]2NCc1cccc(O)c1` (stereo partly drawn) [Compound 20, 17β-(3-Hydroxyphenyl-methylamino)-3-methoxy-estra-1,3,5(10)-triene], the IC50 is 733 nM in data set [1] (setting [3]) and 287 ng/mL in data set [1] (setting [4]).
As for `COc1ccc2c(c1)CCC1C2CC[C@@]2(C)C1CC[C@H]2NCc1cccc(O)c1` (stereo partly drawn) [Compound 6, 17α-(3-Hydroxyphenyl-methylamino)-3-methoxy-estra-1,3,5(10)-triene], the IC50 in data set [1] (setting [3]) was determined as 440 nM; in data set [1] (setting [4]) it was 172 ng/mL.
On to `COc1ccc2c(c1)CCC1C2CC[C@]2(C)C1C[C@H](NCc1ccccc1O)[C@@H]2O` (stereo partly drawn) [Compound 47, 16β-(2-Hydroxyphenyl-methylamino)-17β-hydroxy-3-methoxy-13α-estra-1,3,5(10)-triene], for which the IC50 in data set [1] (setting [3]) was 140 nM; in data set [1] (setting [4]), 57.3 ng/mL.
In the case of `COc1ccc2c(c1)CCC1C2CC[C@]2(C)C1C[C@@H](NCc1ccccc1O)[C@@H]2O` (stereo partly drawn) [Compound 48, 16α-(2-Hydroxyphenyl-methylamino)-17β-hydroxy-3-methoxy-13α-estra-1,3,5(10)-triene], the figures for the IC50 in data set [1] (setting [3]) and in data set [1] (setting [4]) were 83.3 nM and 34 ng/mL, respectively.
Turning to `COc1ccc2c(c1)CCC1C2CC[C@@]2(C)C1C[C@@H](NCc1ccccc1O)[C@H]2O` (stereo partly drawn) [Compound 45, 16α-(2-Hydroxyphenyl-methylamino)-17α-hydroxy-3-methoxy-estra-1,3,5(10)-triene], the IC50 in data set [1] (setting [3]) amounted to 101 nM; in data set [1] (setting [4]), 41 ng/mL.
For the compound `COc1ccc2c(c1)CCC1C2CC[C@]2(C)C[C@H](NCc3ccccc3O)CC12` (stereo partly drawn) [Compound 4, 16α-(2-Hydroxyphenyl-methylamino)-3-methoxy-estra-1,3,5(10)-triene], the IC50 in data set [1] (setting [3]) was 41.5 nM; in data set [1] (setting [4]) it was 16.4 ng/mL; with K562 it was 1.3 µg/mL (≈ 3.32 µM); in the data set on L929 it was 1.6 µg/mL (≈ 4.09 µM); in the data set “Cytotoxicity HeLa” it was 4.7 µg/mL (≈ 12 µM). In data set [1], the “in vitro activity in words” value is given as “comparable activity”.
In the case of `COc1ccc2c(c1)CCC1C2CC[C@@]2(C)C1CC[C@@H]2NCc1c(O)ccc2ccccc12` (stereo partly drawn) [Compound 19, 17β-[(2-Hydroxynaphth-1-yl)-methylamino]-3-methoxy-estra-1,3,5(10)-triene hydroperchlorate], the results for the IC50 in data set [1] (setting [3]) and in data set [1] (setting [4]) were 182 nM and 98.6 ng/mL, respectively.
Regarding `COc1ccc2c(c1)CCC1C2CC[C@@]2(C)C1CC[C@H]2NCc1ccccc1OC` (stereo partly drawn) [Compound 5, 17α-(2-Methoxyphenyl-methylamino)-3-methoxy-estra-1,3,5(10)-triene], the IC50 in data set [1] (setting [3]) was determined as 879 nM; in data set [1] (setting [4]), 578 ng/mL.
As to `COc1ccc2c(c1)CCC1C2CC[C@@]2(C)C1C[C@H](NCc1ccccc1O)[C@@H]2O` (stereo partly drawn) [Compound 42, 16β-(2-Hydroxyphenyl-methylamino)-17β-hydroxy-3-methoxy-estra-1,3,5(10)-triene], the IC50 in data set [1] (setting [3]) came to 227 nM; in data set [1] (setting [4]), 91.3 ng/mL.
`COc1ccc2c(c1)CC[C@@H]1[C@@H]2CC[C@]2(C)[C@@H](O)[C@H](N(C)c3cc4ccccc4cc3O)C[C@@H]12` [Compound 32, 16α-[(3-Hydroxy-naphth-2-yl)-methylamino]-17β-hydroxy-3-methoxy-estra-1,3,5(10)-triene]: the figures for the IC50 in data set [1] (setting [3]) and in data set [1] (setting [4]) were 29.9 nM and 13.7 ng/mL, respectively.
In the case of `COc1ccc2c(c1)CCC1C2CC[C@@]2(C)C1CC[C@H]2NCc1c(O)ccc2ccccc12` (stereo partly drawn) [Compound 17, 17α-[(2-Hydroxynaphth-1-yl)-methylamino]-3-methoxy-estra-1,3,5(10)-triene], the IC50 in data set [1] (setting [3]) was 72.8 nM; in data set [1] (setting [4]), 32.1 ng/mL.
For the compound `COc1ccc2c(c1)CCC1C2CC[C@@]2(C)C1CC[C@H]2NCc1ccccc1O` (stereo partly drawn) [Compound 2, 17α-(2-Hydroxyphenyl-methylamino)-3-methoxy-estra-1,3,5(10)-triene], in the data set with adult S. mansoni, the “morphological alterations of the worms” value is on record as “ventrally curved in a cork-screw like manner”. Further, the egg production entry is listed as “Almost no eggs were detectable” in the data set on adult S. mansoni (24 hours, 100 μM); “No eggs were detectable” in the data set on adult S. mansoni (48 hours, 20 μM); “No eggs were detectable” in the data set on adult S. mansoni (48 hours, 100 μM). Further, the motility / vitality result was “Trematodes moved only slightly and with twitching movements” in the data set with adult S. mansoni (24 hours, 100 μM); “The trematodes barely moved” in the data set on adult S. mansoni (48 hours, 20 μM); “All trematodes were dead” in the data set with adult S. mansoni (48 hours, 100 μM). For the same compound, the couples detectable result with adult S. mansoni (24 hours, 100 μM, 3 groups of 10 pairs) was “in two of the groups each one couple was detected”; in the data set with adult S. mansoni (48 hours, 20 μM, 3 groups of 8 pairs), “no couples could be observed in any of the groups”; in the data set with adult S. mansoni (48 hours, 100 μM, 3 groups of 8 pairs) it was “no couples could be observed in any of the groups”. Besides, the IC50 came out at 2.9 ng/mL in data set [1] (3D7, read-out: IC50 [ng/ml] P.f.(3D7)); 7.4 nM in data set [1] (setting [3]); 0.5 µg/mL (≈ 1.28 µM) in the data set with K562; 1.9 µg/mL (≈ 4.85 µM) with L929; 3.1 µg/mL (≈ 7.92 µM) in the data set “Cytotoxicity HeLa”. In addition, in data set [2] (all dosages and routes of administration tested), the “life span in words” value is “considerably extended the life span”. In addition, the “MSD (days)” value in data set [2] (oral 3 × 10 mg/kg) is on record as 8.7 (n = 3) days; in data set [2] (oral 3 × 30 mg/kg), 13 (n = 3) days; in data set [2] (oral 3 × 100 mg/kg) it was 15.33 (n = 3) days; in data set [2] (sc 3 × 10 mg/kg), 7 (n = 3) days; in data set [2] (sc 3 × 30 mg/kg), 14 (n = 3) days. For the same compound, the “Activity (%)” value was 46.8% in data set [2] (oral 3 × 10 mg/kg); 99.4% in data set [2] (oral 3 × 30 mg/kg); 99.7% in data set [2] (oral 3 × 100 mg/kg); 17.7% in data set [2] (sc 3 × 10 mg/kg); 61.8% in data set [2] (sc 3 × 30 mg/kg).
Consider `CCN(CC)CCCC(C)Nc1ccnc2cc(Cl)ccc12` (centres unmarked) [chloroquine, reference compound], for which the “MSD chloroquine ip 3 × 10 mg/kg” value in data set [2] (ip 3 × 10 mg/kg) was found to be 13.6 days.
With `COc1ccc2c(c1)CCC1C2CC[C@]2(C)C[C@@H](NCc3ccccc3O)CC12` (stereo partly drawn) [Compound 3, 16β-(2-Hydroxyphenyl-methylamino)-3-methoxy-estra-1,3,5(10)-triene], the IC50 turned out to be 62 nM in data set [1] (setting [3]); 24.5 ng/mL in data set [1] (setting [4]); 0.7 µg/mL (≈ 1.79 µM) with K562; 1.9 µg/mL (≈ 4.85 µM) in the data set on L929; 4.4 µg/mL (≈ 11.2 µM) in the data set “Cytotoxicity HeLa”. Further, the “in vitro activity in words” value in data set [1] was “comparable activity”.
In the case of `CCN(CC)c1ccc(CN[C@H]2CCC3C4CCc5cc(OC)ccc5C4CC[C@@]32C)c(O)c1` (stereo partly drawn) [Compound 23, 17β-[4-(N,N-Diethylamino)-2-hydroxyphenyl-methylamino]-3-methoxy-estra-1,3,5(10)-triene], the IC50 worked out at 716 nM in data set [1] (setting [3]) and 331 ng/mL in data set [1] (setting [4]).
For the compound `COc1ccc2c(c1)CCC1C2CC[C@@]2(C)C1C[C@H](NCc1ccccc1O)[C@H]2O` (stereo partly drawn) [Compound 44, 16β-(2-Hydroxyphenyl-methylamino)-17α-hydroxy-3-methoxy-estra-1,3,5(10)-triene], the IC50 in data set [1] (setting [3]) came out at 676 nM; in data set [1] (setting [4]) it was 275 ng/mL; in the data set on K562, 0.85 µg/mL (≈ 2.09 µM); with L929, 2.5 µg/mL (≈ 6.13 µM); in “Cytotoxicity HeLa”, 3.4 µg/mL (≈ 8.34 µM).
`COc1ccc2c(c1)CCC1C2CC[C@@]2(C)C1CC[C@H]2NCc1ccc(O)cc1` (some centres unmarked) [Compound 7]: the IC50 stood at 115 nM in data set [1] (setting [3]) and 45 ng/mL in data set [1] (setting [4]).

Source of the values: patent US9382288B2, “Derivatives of steroid benzylamines, having an antiparasitic antibacterial, antimycotic and/or antiviral action” (Justus-Liebig-Universitat Giessen, priority 2010, dated 2016).
